The results in this text go back to patent US8158628B2, “Sulfonylated 1,2,3,4-tetrahydropyrrolo[1,2-a]pyrazine compounds and their use as pharmaceuticals” (Gruenenthal GmbH, priority 2009, dated 2012).

For this test, the target named is T1, B1R of the rat (Rattus norvegicus, UniProt P97583).
T1 construct: expressed in transfected cells; host or cells: CHO K1 cells (Chinese hamster ovary), stably transfected
T1 sequence (P97583 1-337): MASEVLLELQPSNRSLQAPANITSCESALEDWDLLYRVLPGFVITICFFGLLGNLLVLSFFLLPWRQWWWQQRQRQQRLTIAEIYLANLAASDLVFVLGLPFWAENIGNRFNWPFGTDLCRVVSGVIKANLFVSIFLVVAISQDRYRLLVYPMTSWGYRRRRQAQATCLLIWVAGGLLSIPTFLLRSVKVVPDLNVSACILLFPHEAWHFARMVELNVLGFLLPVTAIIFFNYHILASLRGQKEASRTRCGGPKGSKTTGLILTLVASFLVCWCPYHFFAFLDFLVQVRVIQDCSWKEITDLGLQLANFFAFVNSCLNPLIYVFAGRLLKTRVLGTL
The test can be described thus: FLIPR Ca2+ functional assay, B1R antagonism, rat B1R in CHO K1 cells. Particulars: test substance 10 μM; rB1R CHO K1 cells; agonist Des-Arg9 bradykinin at EC80; % of maximum achievable inhibition. The test is classed as cell-based. A digest of the protocol:
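Stably transfected CHO K1 cells loaded with Fluo-4; Ca2+ fluorescence read on FLIPR (ex 488/em 540 nm). Compound preincubated 10-20 min, then agonist at EC80: Lys-Des-Arg9 bradykinin (human) or Des-Arg9 bradykinin (rat). % inhibition vs maximal inhibition; IC50 from concentration series, n=2-3, N>=2.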
As a reminder, the inhibition is the change of the read-out against control, counted positive when it falls. On to `O=C(CC1c2cccn2CCN1S(=O)(=O)c1ccccc1)N1CCN(Cc2ccc(Cl)c(Cl)c2)CC1` (stereo not drawn) [Example 266, 2-[2-(Benzenesulfonyl)-1,2,3,4-tetrahydro-pyrrolo[1,2-a]pyrazin-1-yl]-1-[4-[(3,4-dichlorophenyl)-methyl]-piperazin-1-yl]-ethanone], for which the inhibition at 10 µM is -3.52%.
To `Cc1cccc(Cl)c1S(=O)(=O)N1CCn2cccc2C1CC(=O)N1CCCN(c2ncccc2C#N)CC1` (stereo not drawn) [Example 164, 2-[4-[2-[2-[(2-Chloro-6-methyl-phenyl)sulfonyl]-1,2,3,4-tetrahydro-pyrrolo[1,2-a]pyrazin-1-yl]-acetyl]-[1,4]diazepan-1-yl]-pyridine-3-carbonitrile] belongs 44.1%; to `O=C(CC1c2cccn2CCN1S(=O)(=O)c1cccc(C(F)(F)F)c1)N1CCN(c2ccccc2F)CC1` (stereo not drawn) [Example 186, 1-[4-(2-Fluorophenyl)-piperazin-1-yl]-2-[2-[[3-(trifluoromethyl)phenyl]sulfonyl]-1,2,3,4-tetrahydro-pyrrolo[1,2-a]pyrazin-1-yl]-ethanone], 24.4%.
Consider `COc1cc(C)c(S(=O)(=O)N2CCn3cccc3C2CC(=O)N2CCC(CCN3CCCCC3)CC2)c(C)c1` (stereo not drawn) [Example 146, 2-[2-[(4-Methoxy-2,6-dimethyl-phenyl)sulfonyl]-1,2,3,4-tetrahydro-pyrrolo[1,2-a]pyrazin-1-yl]-1-[4-(2-piperidin-1-yl-ethyl)-piperidin-1-yl]-ethanone], for which the inhibition at 10 µM worked out at 73.5%.
Take `O=C(CC1c2cccn2CCN1S(=O)(=O)c1ccc(C(F)(F)F)cc1Cl)N1CCc2ccccc2C1` (stereo not drawn) [Example 20, 2-(2-(2-Chloro-4-(trifluoromethyl)phenylsulfonyl)-1,2,3,4-tetrahydropyrrolo[1,2-a]pyrazin-1-yl)-1-(3,4-dihydroisoquinolin-2(1H)-yl)ethanone]: the inhibition at 10 µM is 30.7%.
Take `Cc1cccc(Cl)c1S(=O)(=O)N1CCn2cccc2C1CC(=O)NC1CCN(Cc2ccccc2)C1` (stereo not drawn) [Example 157, N-(1-Benzyl-pyrrolidin-3-yl)-2-[2-[(2-chloro-6-methyl-phenyl)sulfonyl]-1,2,3,4-tetrahydro-pyrrolo[1,2-a]pyrazin-1-yl]-acetamide]: the inhibition at 10 µM stood at 69.5%.
With `Cc1cccc(Cl)c1S(=O)(=O)N1CCn2cccc2C1CC(=O)N1CCCCC1Cc1ccccn1` (stereo not drawn) [Example 250, 2-[2-[(2-Chloro-6-methyl-phenyl)sulfonyl]-1,2,3,4-tetrahydro-pyrrolo[1,2-a]pyrazin-1-yl]-1-[2-(pyridin-2-yl-methyl)-piperidin-1-yl]-ethanone], the inhibition at 10 µM was -38%.
`Cc1cccc(Cl)c1S(=O)(=O)N1CCn2cccc2C1CC(=O)N1CCN(c2ncccc2C#N)CC1` (stereo not drawn) [Example 261, 2-[4-[2-[2-[(2-Chloro-6-methyl-phenyl)sulfonyl]-1,2,3,4-tetrahydro-pyrrolo[1,2-a]pyrazin-1-yl]-acetyl]-piperazin-1-yl]-pyridine-3-carbonitrile]: the inhibition at 10 µM amounted to 29.8%.
To `COc1cc(C)c(S(=O)(=O)N2CCn3cccc3C2CC(=O)N2CCCCC2Cc2ccncc2)c(C)c1` (stereo not drawn) [Example 245, 2-[2-[(4-Methoxy-2,6-dimethyl-phenyl)sulfonyl]-1,2,3,4-tetrahydro-pyrrolo[1,2-a]pyrazin-1-yl]-1-[2-(pyridin-4-yl-methyl)-piperidin-1-yl]-ethanone] belongs -21.5%.
Turning to `Cc1cccc(Cl)c1S(=O)(=O)N1CCn2cccc2C1CC(=O)NCC1CCN(Cc2ccccc2)C1` (stereo not drawn) [Example 166, N-[(1-Benzyl-pyrrolidin-3-yl)-methyl]-2-[2-[(2-chloro-6-methyl-phenyl)sulfonyl]-1,2,3,4-tetrahydro-pyrrolo[1,2-a]pyrazin-1-yl]-acetamide], the inhibition at 10 µM came out at 99.1%.
As for `Cc1cccc(Cl)c1S(=O)(=O)N1CCn2cccc2C1CC(=O)N1CCC(N2CCCCC2)CC1` (stereo not drawn) [Example 160, 2-[2-[(2-Chloro-6-methyl-phenyl)sulfonyl]-1,2,3,4-tetrahydro-pyrrolo[1,2-a]pyrazin-1-yl]-1-(4-piperidin-1-yl-piperidin-1-yl)-ethanone], the inhibition at 10 µM is 42.8%.
For the compound `O=C(CC1c2cccn2CCN1S(=O)(=O)c1ccccc1)N1CCC(N2CCCC2)CC1` (stereo not drawn) [Example 175, 2-[2-(Benzenesulfonyl)-1,2,3,4-tetrahydro-pyrrolo[1,2-a]pyrazin-1-yl]-1-(4-pyrrolidin-1-yl-piperidin-1-yl)-ethanone], the inhibition at 10 µM came to 9.54%.
As to `N#Cc1cccnc1N1CCN(C(=O)CC2c3cccn3CCN2S(=O)(=O)c2cccc(C(F)(F)F)c2)CC1` (stereo not drawn) [Example 269, 2-[4-[2-[2-[[3-(Trifluoromethyl)phenyl]sulfonyl]-1,2,3,4-tetrahydro-pyrrolo[1,2-a]pyrazin-1-yl]-acetyl]-piperazin-1-yl]-pyridine-3-carbonitrile], the inhibition at 10 µM came out at 1.05%.
`O=C(CC1c2cccn2CCN1S(=O)(=O)c1ccccc1)N1CCN(c2ccccc2)CC1` (stereo not drawn) [Example 174, 2-[2-(Benzenesulfonyl)-1,2,3,4-tetrahydro-pyrrolo[1,2-a]pyrazin-1-yl]-1-(4-phenyl-piperazin-1-yl)-ethanone]: the inhibition at 10 µM turned out to be 28%.
To `O=C(CC1c2cccn2CCN1S(=O)(=O)c1ccccc1)N1CCC(c2ccccc2)CC1` (stereo not drawn) [Example 268, 2-[2-(Benzenesulfonyl)-1,2,3,4-tetrahydro-pyrrolo[1,2-a]pyrazin-1-yl]-1-(4-phenyl-piperidin-1-yl)-ethanone] belongs 28%.
